From patent US20090023810A1, “METHODS OF TRANSLATION AND/OR INFLAMMATION BLOCKADE” (priority 2007, published 2009)

What was measured:
PPARγ = molecular target: T1, PPARγ (Homo sapiens, UniProt P37231); assay: PPARγ reporter (PPRE) luciferase assay in 293T cells; type: cell-based; conditions: 1 μM 24 hours before 10 μM rosiglitazone or troglitazone 12 hours, FIG. 3D
T1 construct: 293T cells that were transfected with a plasmid (1 μg) expressing a PPARγ reporter gene; endogenous in cells; host or cells: 293T
T1 sequence (P37231 1-505): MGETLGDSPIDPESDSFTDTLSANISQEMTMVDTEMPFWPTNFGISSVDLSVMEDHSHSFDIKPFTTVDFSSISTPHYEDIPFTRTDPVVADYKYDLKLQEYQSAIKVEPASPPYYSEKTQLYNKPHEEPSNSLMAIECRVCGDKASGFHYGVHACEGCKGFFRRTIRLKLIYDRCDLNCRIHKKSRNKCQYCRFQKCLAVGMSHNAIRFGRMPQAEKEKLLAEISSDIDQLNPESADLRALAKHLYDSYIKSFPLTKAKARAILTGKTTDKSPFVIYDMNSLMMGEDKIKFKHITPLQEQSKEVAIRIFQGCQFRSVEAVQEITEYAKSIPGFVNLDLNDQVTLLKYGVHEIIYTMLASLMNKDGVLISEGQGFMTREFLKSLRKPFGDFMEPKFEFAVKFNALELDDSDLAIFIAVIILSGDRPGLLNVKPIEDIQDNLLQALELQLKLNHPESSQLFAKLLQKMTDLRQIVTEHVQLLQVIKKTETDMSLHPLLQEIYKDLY
Experimental: Luciferase assays were performed as described elsewhere (Kim et al., 2005, which is hereby incorporated by reference for all purposes as if fully set forth herein).
293T cells that were transfected with a plasmid (1 μg) expressing a PPARγ reporter gene. After transfection, cells were pretreated or not pretreated with 1 μM of GW9662 for 24 hours, before being treated with 10 μM of rosiglitazone (Rosi) or troglitazone (Tro) for 12 hours. The obtained relative luciferase activities in the cell extracts normalized to a mock-treated control extract are shown in FIG. 3D.

HeLa cells = assay: Stress granule (SG) formation in HeLa cells, immunocytochemistry; type: cell-based; conditions: pretreated with 1 μM for 24 hours, then 50 μM prostaglandin 1 hour, FIG. 3C
eIF4A = molecular target: T2, eIF4A (Homo sapiens, UniProt P60842); conditions: cited from earlier work
T2 construct: His; gift of Dr. Nadejda Korneeva, Louisiana State University
T2 sequence (P60842 whole entry): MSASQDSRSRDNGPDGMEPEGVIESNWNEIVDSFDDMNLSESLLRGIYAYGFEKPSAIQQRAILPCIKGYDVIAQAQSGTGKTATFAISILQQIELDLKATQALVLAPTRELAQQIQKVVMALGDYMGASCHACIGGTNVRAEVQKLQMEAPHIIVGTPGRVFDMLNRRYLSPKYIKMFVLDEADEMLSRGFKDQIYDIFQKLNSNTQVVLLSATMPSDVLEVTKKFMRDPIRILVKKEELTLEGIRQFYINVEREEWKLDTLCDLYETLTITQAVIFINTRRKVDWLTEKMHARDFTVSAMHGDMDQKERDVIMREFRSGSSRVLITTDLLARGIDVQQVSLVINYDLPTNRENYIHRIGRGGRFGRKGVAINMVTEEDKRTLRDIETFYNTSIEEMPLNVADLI

Question: What does the source list for `O=C(Nc1ccccc1)c1cc([N+](=O)[O-])ccc1Cl` [GW9662]?
Answer: PPARγ-mediated PPRE activation (PPARγ): completely blocked; Effect of pretreatment on SG formation induced by 15d-PGJ2 and PGA1 (HeLa cells): had no effect on SG formation induced by 15d-PGJ2 and PGA1

Question: With `CC(/C=C/C(C)=C/[C@@H]1Cc2nc(cs2)[C@@H](C)C[C@@H](N)CC(=O)O[C@@H](C)C/C(C)=C/C=C\C(=O)O1)=C\CN(C)C` [PatA, pateamine A] as the compound, how does the SG formation (eIF4A; Dang et al., 2006) read?
Answer: induces formation of SGs independently of eIF2F phosphorylation

Question: And the Translation (eIF4A; Low et al., 2005)?
Answer: could block translation by inactivating eIF4A
